{
  "source": "paper PMC4844702",
  "about": "“Selective inhibition of the kinase DYRK1A by targeting its folding process” (Nature Communications, 2016)",
  "test_in_all_cases": "Kinase panel (Carna)",
  "assay_type_in_all_cases": "biochemical",
  "key": {"MST1": {"target": "T1, MST1 (Homo sapiens, UniProt Q13043)", "T1 construct": "purchased Carna Biosciences", "description": "(§1) Detailed information on the assay conditions is available on the website of Carna Biosciences (http://www.carnabio.com)."}, "EPHB1": {"target": "T2, EPHB1 (Homo sapiens, UniProt P54762)", "T2 construct": "purchased Carna Biosciences", "description": "as §1"}, "MST3": {"target": "T3, MST3 (Homo sapiens, UniProt Q9Y6E0)", "T3 construct": "purchased Carna Biosciences", "description": "as §1"}, "skMLCK": {"target": "T4, skMLCK (Homo sapiens, UniProt Q9H1R3)", "T4 construct": "purchased Carna Biosciences"}, "PKCι": {"target": "T5, PKCι (Homo sapiens, UniProt P41743)", "T5 construct": "purchased Carna Biosciences", "description": "as §1"}, "PIM3": {"target": "T6, PIM3 (Homo sapiens, UniProt Q86V86)", "T6 construct": "purchased Carna Biosciences", "conditions": "10 µM FINDY"}, "CDK2/CycA2": {"target": "T7, CDK2/CycA2 (Homo sapiens, UniProt P24941)", "T7 construct": "purchased Carna Biosciences", "description": "as §1"}, "PKCα": {"target": "T8, PKCα (Homo sapiens, UniProt P17252)", "T8 construct": "purchased Carna Biosciences"}, "CDC2/CycB1": {"target": "T9, CDC2/CycB1 (Homo sapiens, UniProt P06493)", "T9 construct": "purchased Carna Biosciences", "T9 sequence (P06493 whole entry)": "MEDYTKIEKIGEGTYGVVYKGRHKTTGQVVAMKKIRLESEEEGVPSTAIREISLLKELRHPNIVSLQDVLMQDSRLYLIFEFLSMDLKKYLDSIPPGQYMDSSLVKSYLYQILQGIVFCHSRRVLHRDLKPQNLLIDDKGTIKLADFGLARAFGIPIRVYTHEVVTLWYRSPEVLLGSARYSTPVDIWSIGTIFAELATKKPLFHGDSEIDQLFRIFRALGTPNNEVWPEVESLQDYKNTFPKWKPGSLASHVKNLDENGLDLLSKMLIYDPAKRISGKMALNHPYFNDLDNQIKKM", "T9 sequence (P14635 whole entry partner)": "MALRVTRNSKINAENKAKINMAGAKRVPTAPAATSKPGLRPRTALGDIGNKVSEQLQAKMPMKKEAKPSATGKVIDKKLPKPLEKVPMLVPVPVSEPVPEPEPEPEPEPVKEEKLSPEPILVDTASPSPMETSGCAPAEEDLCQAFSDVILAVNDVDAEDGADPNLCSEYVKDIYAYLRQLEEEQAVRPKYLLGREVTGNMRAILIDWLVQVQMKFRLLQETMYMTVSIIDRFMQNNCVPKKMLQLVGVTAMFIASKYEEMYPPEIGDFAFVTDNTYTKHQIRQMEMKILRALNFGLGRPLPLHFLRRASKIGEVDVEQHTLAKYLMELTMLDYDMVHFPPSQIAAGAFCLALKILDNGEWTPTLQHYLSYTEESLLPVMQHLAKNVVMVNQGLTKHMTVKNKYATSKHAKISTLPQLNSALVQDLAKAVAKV"}, "COT_Cascade": {"target": "T10, COT_Cascade (Homo sapiens, UniProt P41279)", "T10 construct": "purchased Carna Biosciences"}, "RET": {"target": "T11, RET (Homo sapiens, UniProt P07949)", "T11 construct": "purchased Carna Biosciences", "description": "as §1"}, "PDGFRα": {"target": "T12, PDGFRα (Homo sapiens, UniProt P16234)", "T12 construct": "purchased Carna Biosciences", "description": "as §1"}, "PAK6": {"target": "T13, PAK6 (Homo sapiens, UniProt Q9NQU5)", "T13 construct": "purchased Carna Biosciences", "description": "as §1"}, "CaMK1δ": {"target": "T14, CaMK1δ (Homo sapiens, UniProt Q8IU85)", "T14 construct": "purchased Carna Biosciences", "description": "as §1"}, "EPHB4": {"target": "T15, EPHB4 (Homo sapiens, UniProt P54760)", "T15 construct": "purchased Carna Biosciences", "description": "as §1"}, "RSK4": {"target": "T16, RSK4 (Homo sapiens, UniProt Q9UK32)", "T16 construct": "purchased Carna Biosciences"}, "CaMK2γ": {"target": "T17, CaMK2γ (Homo sapiens, UniProt Q13555)", "T17 construct": "purchased Carna Biosciences"}, "PYK2": {"target": "T18, PYK2 (Homo sapiens, UniProt Q14289)", "T18 construct": "purchased Carna Biosciences", "T18 sequence (Q14289 whole entry)": "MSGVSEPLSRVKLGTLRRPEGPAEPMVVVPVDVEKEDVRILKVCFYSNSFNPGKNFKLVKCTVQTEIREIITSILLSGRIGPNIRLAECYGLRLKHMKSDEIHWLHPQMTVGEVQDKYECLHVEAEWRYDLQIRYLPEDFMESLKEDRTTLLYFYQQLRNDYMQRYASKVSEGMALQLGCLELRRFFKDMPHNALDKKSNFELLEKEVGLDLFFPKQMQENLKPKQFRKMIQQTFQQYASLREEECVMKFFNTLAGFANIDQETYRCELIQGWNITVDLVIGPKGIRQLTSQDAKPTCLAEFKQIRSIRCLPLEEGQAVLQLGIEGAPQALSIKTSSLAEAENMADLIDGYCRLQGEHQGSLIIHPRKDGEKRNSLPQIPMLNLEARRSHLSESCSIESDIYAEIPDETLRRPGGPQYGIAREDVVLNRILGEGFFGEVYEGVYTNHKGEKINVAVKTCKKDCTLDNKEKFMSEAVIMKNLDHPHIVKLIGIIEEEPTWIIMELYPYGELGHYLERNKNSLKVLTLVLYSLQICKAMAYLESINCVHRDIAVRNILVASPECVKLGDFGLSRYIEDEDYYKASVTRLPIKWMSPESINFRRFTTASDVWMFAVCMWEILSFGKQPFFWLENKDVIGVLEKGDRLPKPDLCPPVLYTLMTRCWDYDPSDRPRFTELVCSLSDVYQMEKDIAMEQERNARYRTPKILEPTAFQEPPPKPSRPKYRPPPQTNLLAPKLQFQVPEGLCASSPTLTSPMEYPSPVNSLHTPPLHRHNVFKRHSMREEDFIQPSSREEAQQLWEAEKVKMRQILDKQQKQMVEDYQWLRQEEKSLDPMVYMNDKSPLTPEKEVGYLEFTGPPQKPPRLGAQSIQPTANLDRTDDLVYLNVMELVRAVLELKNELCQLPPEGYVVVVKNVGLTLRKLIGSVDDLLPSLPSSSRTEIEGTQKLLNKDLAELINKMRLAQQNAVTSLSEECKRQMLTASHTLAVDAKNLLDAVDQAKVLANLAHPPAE", "description": "as §1"}, "DCAMKL2": {"target": "T19, DCAMKL2 (Homo sapiens, UniProt Q8N568)", "T19 construct": "purchased Carna Biosciences", "description": "as §1"}, "ZAP70": {"target": "T20, ZAP70 (Homo sapiens, UniProt P43403)", "T20 construct": "purchased Carna Biosciences", "description": "as §1"}, "PKCβ2": {"target": "T21, PKCβ2 (Homo sapiens, UniProt P05771)", "T21 construct": "purchased Carna Biosciences", "description": "as §1"}, "HER4": {"target": "T22, HER4 (Homo sapiens, UniProt Q15303)", "T22 construct": "purchased Carna Biosciences", "description": "as §1"}, "ROS": {"target": "T23, ROS (Homo sapiens, UniProt P08922)", "T23 construct": "purchased Carna Biosciences", "description": "as §1"}, "EPHA1": {"target": "T24, EPHA1 (Homo sapiens, UniProt P21709)", "T24 construct": "purchased Carna Biosciences"}, "CaMK2δ": {"target": "T25, CaMK2δ (Homo sapiens, UniProt Q13557)", "T25 construct": "purchased Carna Biosciences"}, "WNK3": {"target": "T26, WNK3 (Homo sapiens, UniProt Q9BYP7)", "T26 construct": "purchased Carna Biosciences", "T26 sequence (Q9BYP7 whole entry)": "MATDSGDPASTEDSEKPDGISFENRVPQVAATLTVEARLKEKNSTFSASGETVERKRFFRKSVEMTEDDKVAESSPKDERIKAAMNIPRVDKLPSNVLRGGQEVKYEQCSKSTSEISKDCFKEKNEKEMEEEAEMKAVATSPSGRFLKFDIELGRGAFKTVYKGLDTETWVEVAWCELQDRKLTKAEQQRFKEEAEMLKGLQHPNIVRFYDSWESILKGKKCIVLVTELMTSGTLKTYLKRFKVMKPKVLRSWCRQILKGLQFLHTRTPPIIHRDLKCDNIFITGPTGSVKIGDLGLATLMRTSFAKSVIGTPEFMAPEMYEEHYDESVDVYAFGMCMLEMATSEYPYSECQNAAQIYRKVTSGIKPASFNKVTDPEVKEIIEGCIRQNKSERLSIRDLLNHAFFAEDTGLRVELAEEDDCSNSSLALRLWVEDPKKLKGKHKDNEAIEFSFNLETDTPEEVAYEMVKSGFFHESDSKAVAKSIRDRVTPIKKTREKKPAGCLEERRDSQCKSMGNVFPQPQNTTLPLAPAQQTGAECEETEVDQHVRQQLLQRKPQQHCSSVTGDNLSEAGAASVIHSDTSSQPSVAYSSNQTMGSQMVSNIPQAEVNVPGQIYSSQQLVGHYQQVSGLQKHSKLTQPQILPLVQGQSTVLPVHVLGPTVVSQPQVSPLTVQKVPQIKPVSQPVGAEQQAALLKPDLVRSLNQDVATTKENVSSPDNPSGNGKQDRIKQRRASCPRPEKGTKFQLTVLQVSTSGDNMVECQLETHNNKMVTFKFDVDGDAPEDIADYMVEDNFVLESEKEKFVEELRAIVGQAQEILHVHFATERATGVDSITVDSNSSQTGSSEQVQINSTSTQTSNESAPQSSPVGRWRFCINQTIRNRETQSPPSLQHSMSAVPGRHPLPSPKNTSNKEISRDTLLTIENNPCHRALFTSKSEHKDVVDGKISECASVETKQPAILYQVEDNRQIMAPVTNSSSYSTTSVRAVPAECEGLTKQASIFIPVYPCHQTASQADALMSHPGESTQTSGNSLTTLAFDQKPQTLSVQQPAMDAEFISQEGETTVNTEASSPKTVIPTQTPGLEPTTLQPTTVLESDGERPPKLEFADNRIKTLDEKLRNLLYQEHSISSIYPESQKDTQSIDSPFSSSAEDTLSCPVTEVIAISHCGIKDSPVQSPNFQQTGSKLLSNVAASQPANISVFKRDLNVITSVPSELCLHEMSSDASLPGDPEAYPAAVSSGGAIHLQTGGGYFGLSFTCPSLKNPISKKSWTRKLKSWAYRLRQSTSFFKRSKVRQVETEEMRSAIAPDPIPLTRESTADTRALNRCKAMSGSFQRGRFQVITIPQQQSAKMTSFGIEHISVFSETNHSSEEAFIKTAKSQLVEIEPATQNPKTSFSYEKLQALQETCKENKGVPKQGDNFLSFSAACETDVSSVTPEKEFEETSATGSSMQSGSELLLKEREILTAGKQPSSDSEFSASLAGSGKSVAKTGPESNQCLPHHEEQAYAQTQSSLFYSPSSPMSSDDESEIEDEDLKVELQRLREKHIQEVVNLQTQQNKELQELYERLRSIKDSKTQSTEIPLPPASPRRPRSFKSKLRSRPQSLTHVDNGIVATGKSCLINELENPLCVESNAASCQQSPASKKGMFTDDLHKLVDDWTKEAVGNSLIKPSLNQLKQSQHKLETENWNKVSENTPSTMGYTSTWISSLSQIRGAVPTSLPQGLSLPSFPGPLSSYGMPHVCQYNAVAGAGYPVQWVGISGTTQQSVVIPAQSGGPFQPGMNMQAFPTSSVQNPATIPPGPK", "description": "as §1"}, "INSR": {"target": "T27, INSR (Homo sapiens, UniProt P06213)", "T27 construct": "purchased Carna Biosciences", "description": "as §1"}, "PKCθ": {"target": "T28, PKCθ (Homo sapiens, UniProt Q04759)", "T28 construct": "purchased Carna Biosciences", "description": "as §1"}, "DDR2": {"target": "T29, DDR2 (Homo sapiens, UniProt Q16832)", "T29 construct": "purchased Carna Biosciences"}, "RSK3": {"target": "T30, RSK3 (Homo sapiens, UniProt Q15349)", "T30 construct": "purchased Carna Biosciences"}, "MET": {"target": "T31, MET (Homo sapiens, UniProt P08581)", "T31 construct": "purchased Carna Biosciences", "description": "as §1"}, "EPHA4": {"target": "T32, EPHA4 (Homo sapiens, UniProt P54764)", "T32 construct": "purchased Carna Biosciences"}, "MARK3": {"target": "T33, MARK3 (Homo sapiens, UniProt P27448)", "T33 construct": "purchased Carna Biosciences", "T33 sequence (P27448 whole entry)": "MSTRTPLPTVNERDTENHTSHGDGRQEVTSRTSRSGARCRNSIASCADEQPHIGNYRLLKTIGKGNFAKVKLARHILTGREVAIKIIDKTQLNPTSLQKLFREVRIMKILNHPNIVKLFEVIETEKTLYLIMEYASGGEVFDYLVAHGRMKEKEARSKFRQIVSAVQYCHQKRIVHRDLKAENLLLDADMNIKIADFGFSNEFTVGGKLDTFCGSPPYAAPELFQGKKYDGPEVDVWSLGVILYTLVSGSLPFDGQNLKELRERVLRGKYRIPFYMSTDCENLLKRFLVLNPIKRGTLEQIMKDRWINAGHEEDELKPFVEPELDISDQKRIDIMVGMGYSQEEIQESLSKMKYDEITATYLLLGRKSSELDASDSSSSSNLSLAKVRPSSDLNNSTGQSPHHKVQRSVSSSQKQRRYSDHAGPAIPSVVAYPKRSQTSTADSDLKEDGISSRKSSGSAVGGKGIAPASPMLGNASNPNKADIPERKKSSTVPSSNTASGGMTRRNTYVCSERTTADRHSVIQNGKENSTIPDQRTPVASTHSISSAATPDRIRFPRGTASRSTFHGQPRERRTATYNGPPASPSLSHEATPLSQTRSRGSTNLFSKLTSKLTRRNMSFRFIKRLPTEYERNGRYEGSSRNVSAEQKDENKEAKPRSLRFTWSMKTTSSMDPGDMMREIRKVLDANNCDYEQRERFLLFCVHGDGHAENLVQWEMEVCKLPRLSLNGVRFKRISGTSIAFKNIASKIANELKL", "description": "as §1"}, "JAK2": {"target": "T34, JAK2 (Homo sapiens, UniProt O60674)", "T34 construct": "purchased Carna Biosciences", "description": "as §1"}, "PKN1": {"target": "T35, PKN1 (Homo sapiens, UniProt Q16512)", "T35 construct": "purchased Carna Biosciences"}, "MAP3K4_Cascade": {"target": "T36, MAP3K4_Cascade (Homo sapiens, UniProt Q9Y6R4)", "T36 construct": "purchased Carna Biosciences", "description": "as §1"}, "CK1γ1": {"target": "T37, CK1γ1 (Homo sapiens, UniProt Q9HCP0)", "T37 construct": "purchased Carna Biosciences", "T37 sequence (Q9HCP0 whole entry)": "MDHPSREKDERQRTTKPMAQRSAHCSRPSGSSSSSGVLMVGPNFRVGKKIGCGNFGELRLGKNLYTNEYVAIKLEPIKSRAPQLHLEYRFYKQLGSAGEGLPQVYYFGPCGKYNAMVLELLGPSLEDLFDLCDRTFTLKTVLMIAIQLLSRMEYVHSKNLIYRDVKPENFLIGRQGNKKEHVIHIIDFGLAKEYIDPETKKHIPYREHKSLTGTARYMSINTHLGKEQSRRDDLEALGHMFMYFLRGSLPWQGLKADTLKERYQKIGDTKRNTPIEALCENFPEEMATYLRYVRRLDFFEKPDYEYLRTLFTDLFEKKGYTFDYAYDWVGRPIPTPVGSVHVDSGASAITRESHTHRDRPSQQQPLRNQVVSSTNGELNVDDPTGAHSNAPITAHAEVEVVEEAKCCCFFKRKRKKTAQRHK"}, "NEK2": {"target": "T38, NEK2 (Homo sapiens, UniProt P51955)", "T38 construct": "purchased Carna Biosciences"}, "BRAF_Cascade": {"target": "T39, BRAF_Cascade (Homo sapiens, UniProt P15056)", "T39 construct": "purchased Carna Biosciences", "description": "as §1"}, "FGFR1": {"target": "T40, FGFR1 (Homo sapiens, UniProt P11362)", "T40 construct": "purchased Carna Biosciences"}, "MAP3K1_Cascade": {"target": "T41, MAP3K1_Cascade (Homo sapiens, UniProt Q13233)", "T41 construct": "purchased Carna Biosciences", "description": "as §1"}, "LTK": {"target": "T42, LTK (Homo sapiens, UniProt P29376)", "T42 construct": "purchased Carna Biosciences", "description": "as §1"}, "LYNa": {"target": "T43, LYNa (Homo sapiens, UniProt P07948)", "T43 construct": "purchased Carna Biosciences", "description": "as §1"}, "PEK": {"target": "T44, PEK (Homo sapiens, UniProt Q9NZJ5)", "T44 construct": "purchased Carna Biosciences", "description": "as §1"}},
  "data": [
    {"smiles": "COc1ccc(/C=C2\\SC(=S)NC2=O)cc1C#C[Si](C)(C)C", "note": "[FINDY]", "values": [
      {"measurement": "inhibition at 10 µM", "setting": "MST1", "result": -5.2, "unit": "%"},
      {"measurement": "inhibition at 10 µM", "setting": "EPHB1", "result": 13.9, "unit": "%"},
      {"measurement": "inhibition at 10 µM", "setting": "MST3", "result": 6.4, "unit": "%"},
      {"measurement": "inhibition at 10 µM", "setting": "skMLCK", "result": 2, "unit": "%"},
      {"measurement": "inhibition at 10 µM", "setting": "PKCι", "result": -4.3, "unit": "%"},
      {"measurement": "inhibition at 10 µM", "setting": "PIM3", "result": 83.1, "unit": "%"},
      {"measurement": "inhibition at 10 µM", "setting": "CDK2/CycA2", "result": 31.3, "unit": "%"},
      {"measurement": "inhibition at 10 µM", "setting": "PKCα", "result": 0.6, "unit": "%"},
      {"measurement": "inhibition at 10 µM", "setting": "CDC2/CycB1", "result": 43.4, "unit": "%"},
      {"measurement": "inhibition at 10 µM", "setting": "COT_Cascade", "result": 55.4, "unit": "%"},
      {"measurement": "inhibition at 10 µM", "setting": "RET", "result": 12.6, "unit": "%"},
      {"measurement": "inhibition at 10 µM", "setting": "PDGFRα", "result": 14.8, "unit": "%"},
      {"measurement": "inhibition at 10 µM", "setting": "PAK6", "result": -145, "unit": "%"},
      {"measurement": "inhibition at 10 µM", "setting": "CaMK1δ", "result": 7.2, "unit": "%"},
      {"measurement": "inhibition at 10 µM", "setting": "EPHB4", "result": 20.5, "unit": "%"},
      {"measurement": "inhibition at 10 µM", "setting": "RSK4", "result": 29.6, "unit": "%"},
      {"measurement": "inhibition at 10 µM", "setting": "CaMK2γ", "result": -4.6, "unit": "%"},
      {"measurement": "inhibition at 10 µM", "setting": "PYK2", "result": 3.6, "unit": "%"},
      {"measurement": "inhibition at 10 µM", "setting": "DCAMKL2", "result": -3.8, "unit": "%"},
      {"measurement": "inhibition at 10 µM", "setting": "ZAP70", "result": 12.9, "unit": "%"},
      {"measurement": "inhibition at 10 µM", "setting": "PKCβ2", "result": -2.3, "unit": "%"},
      {"measurement": "inhibition at 10 µM", "setting": "HER4", "result": -13.4, "unit": "%"},
      {"measurement": "inhibition at 10 µM", "setting": "ROS", "result": 0.3, "unit": "%"},
      {"measurement": "inhibition at 10 µM", "setting": "EPHA1", "result": 40.5, "unit": "%"},
      {"measurement": "inhibition at 10 µM", "setting": "CaMK2δ", "result": -4, "unit": "%"},
      {"measurement": "inhibition at 10 µM", "setting": "WNK3", "result": 18.9, "unit": "%"},
      {"measurement": "inhibition at 10 µM", "setting": "INSR", "result": -1.3, "unit": "%"},
      {"measurement": "inhibition at 10 µM", "setting": "PKCθ", "result": 6.5, "unit": "%"},
      {"measurement": "inhibition at 10 µM", "setting": "DDR2", "result": 13.5, "unit": "%"},
      {"measurement": "inhibition at 10 µM", "setting": "RSK3", "result": 28, "unit": "%"},
      {"measurement": "inhibition at 10 µM", "setting": "MET", "result": 12.4, "unit": "%"},
      {"measurement": "inhibition at 10 µM", "setting": "EPHA4", "result": 16.3, "unit": "%"},
      {"measurement": "inhibition at 10 µM", "setting": "MARK3", "result": 50.6, "unit": "%"},
      {"measurement": "inhibition at 10 µM", "setting": "JAK2", "result": 7.1, "unit": "%"},
      {"measurement": "inhibition at 10 µM", "setting": "PKN1", "result": -0.9, "unit": "%"},
      {"measurement": "inhibition at 10 µM", "setting": "MAP3K4_Cascade", "result": 39.8, "unit": "%"},
      {"measurement": "inhibition at 10 µM", "setting": "CK1γ1", "result": 19.9, "unit": "%"},
      {"measurement": "inhibition at 10 µM", "setting": "NEK2", "result": -5.1, "unit": "%"},
      {"measurement": "inhibition at 10 µM", "setting": "BRAF_Cascade", "result": 33.9, "unit": "%"},
      {"measurement": "inhibition at 10 µM", "setting": "FGFR1", "result": 37, "unit": "%"},
      {"measurement": "inhibition at 10 µM", "setting": "MAP3K1_Cascade", "result": 44.4, "unit": "%"},
      {"measurement": "inhibition at 10 µM", "setting": "LTK", "result": 4.6, "unit": "%"},
      {"measurement": "inhibition at 10 µM", "setting": "LYNa", "result": 4, "unit": "%"},
      {"measurement": "inhibition at 10 µM", "setting": "PEK", "result": 13, "unit": "%"}
    ]}
  ]
}
